In one test the target is T1, MEK1 (Homo sapiens, UniProt Q02750).
T1 construct: purchased Millipore 14-420
Description: MEK1 Activation Kinase Assay (HTRF; Cot1 phosphorylation of GST-MEK1). The test is classed as biochemical. To be noted: activation of GST-MEK1 by Cot1, HTRF, 10 min pre-incubation, 20 min reaction at 22° C. The source says: The kinase Cot1 activates MEK1 by phosphorylating its activation loop. The inhibitory activity of compounds of the present invention on this activation of MEK1 was quantified employing the HTRF assay described in the following paragraphs.
N-terminally His6-tagged recombinant kinase domain of the human Cot1 (amino acids 30-397, purchased from Millipore, cat. no 14-703) expressed in insect cells (SF21) and purified by Ni-NTA affinity chromatography was used as kinase. As substrate for the kinase reaction the unactive C-terminally His6-tagged GST-MEK1 fusion protein (Millipore cat. no 14-420) was used.
For the assay 50 nl of a 100 fold concentrated solution of the test compound in DMSO was pipetted into a black low volume 384 well microtiter plate (Greiner Bio-One, Frickenhausen, Germany), 3 μl of a solution of 24 nM GST-MEK1 and 166.7 μM adenosine-tri-phosphate (ATP) in assay buffer [50 mM Tris/HCl pH 7.5, 10 mM MgCl2, 2 mM dithiothreitol, 0.01% (v/v) Igepal CA 630 (Sigma), 5 mM β-phospho-glycerol] were added and the mixture was incubated for 10 min at 22° C. to allow pre-binding of the test compounds to the GST-MEK1 before the start of the kinase reaction. Then the kinase reaction was started by the addition of 2 μl of a solution of Cot1 in assay buffer and the resulting mixture was incubated for a reaction time of 20 min at 22° C. The concentration of Cot1 in the assay was adjusted depending of the activity of the enzyme lot and was chosen appropriate to have the assay in the linear range, typical enzyme concentrations were in the range of about 2 ng/μl (final conc. in the 5 μl assay volume). The reaction was stopped by the addition of 5 μl of a solution of HTRF detection reagents (13 nM anti GST-XL665 [#61 GSTXLB, Fa. Cis Biointernational, Marcoule, France], 1 nM Eu-cryptate labelled anti-phospho-MEK 1/2 (Ser217/221) [#61P17KAZ, Fa. Cis Biointernational],) in an aqueous EDTA-solution (100 mM EDTA, 500 mM KF, 0.2% (w/v) bovine serum albumin in 100 mM HEPES/NaOH pH 7.5).
The resulting mixture was incubated 2 h at 22° C. to allow the binding of the phosphorylated GST-MEK1 to the anti-GST-XL665 and the Eu-cryptate labelled anti-phospho-MEK 1/2 antibody. Subsequently the amount of Ser217/Ser221-phosphorylated substrate was evaluated by measurement of the resonance is energy transfer from the Eu-Cryptate-labelled anti-phospho-MEK antibody to the anti-GST-XL665. Therefore, the fluorescence emissions at 620 nm and 665 nm after excitation at 350 nm was measured in a HTRF reader, e.g. a Rubystar (BMG Labtechnologies, Offenburg, Germany) or a Viewlux (Perkin-Elmer). The ratio of the emissions at 665 nm and at […] was taken as the measure for the amount of phosphorylated substrate. The data were normalised (enzyme reaction without inhibitor=0% inhibition, all other assay components but no enzyme=100% inhibition).
For orientation: Time-resolved FRET reads energy transfer from a long-lived donor to a nearby acceptor.

A further test relates to A375 cells. Description: A375 Crystal Violet (CV) Proliferation Assay. The class given is cell-based. To be noted: A375 human melanoma cells, mutant BRAF V600E, crystal violet staining, 4 days. On the procedure: Cell proliferation for A375 cells [human melanoma cell line, expressing mutant BRAF V600E] was measured by crystal violet (CV) staining: Cultivated human A375 cells were plated out in a density of 1500 cells/measurement point in 200 μl of growth medium (DMEM/HAMS F12 with 10% FBS and 2 mM Glutamine) in a 96-well multititer plate. After 24 hours, the cells from a plate (zero plate) were stained with crystal violet (see below), while the medium in the other plates was replaced by fresh culture medium (200 μl) to which the test substances had been added in various concentrations (0 μM, and in the range 0.3 nM-30 μM; the final concentration of the solvent dimethyl sulphoxide was 0.5%). The cells were incubated in the presence of the test substances for 4 days. The cell proliferation was determined by staining the cells with crystal violet: the cells were fixed by adding 20 μl/measurement point of an 11% glutaraldehyde solution at room temperature for 15 min. After the fixed cells had been washed three times with water, the plates were dried at room temperature. The cells were stained by adding 100 μl/measurement point of a 0.1% crystal violet solution (pH adjusted to pH 3 by adding acetic acid). After the stained cells had been washed three times with water, the plates were dried at room temperature. The dye was dissolved by adding 100 μl/measurement point of a 10% acetic acid solution, and the extinction was determined by photometry at a wavelength of 595 nm. The percentage change in cell growth was calculated by normalizing the measurements to the extinctions of the zero point plate (=0%) and the extinction of the untreated (0 μM) cells (=100%). The IC50 values were determined by means of a 4-parameter fit using the company's own software.

The test system of another test is HCT116 cells. In words: HCT116 Cell Titer Glo (CTG) Proliferation Assay. The class given is cell-based. The following applies: HCT116 human colorectal cells. On the procedure: (§1) HCT116 cells [human colorectal cell line, expressing […]] were plated at a density of 3000 cells/well in 96 well black-clear bottom tissue culture plates (Costar 3603 black/clear bottom) in 100 μl/well DMEM medium (DMEM/Ham's F12) with 10% Fetal Bovine Serum (FBS) and stable Glutamine incubated at 37° C. Sister wells were plated in separate plate for time zero determination. All plates were incubated overnight at 37° C. Take down time zero plate: 100 μl/well CTG solution (Promega Cell Titer Glo solution) were added to time zero wells in sister plate; the plates were mixed for 2 min on orbital shaker to ensure cell lysis, incubated for 10 minutes, luminescence was read on VICTOR3 (Perkin Elmer). Twenty-four hours after cell seeding, test compounds were diluted in 50 μl medium and were added at a final concentration range from as high 10 μM to as low […] depending on the activities of the tested compounds in serial dilutions at a final DMSO concentration of 0.4%. Cells were incubated for 72 hours at 37° C. after addition of the test compound. Then, using a Promega Cell Titer Glo Luminescent® assay kit, 100 μl microliter lysis buffer containing of the enzyme luciferase and its substrate, luciferin mixture, were added to each well and incubated for 10 min at room temperature in the dark to stabilize luminescence signal. The samples were read on VICTOR3 (Perkin Elmer) using Luminescence protocol. The percentage change in cell growth was calculated by normalizing the measurements to the extinctions of the zero point plate (=0%) and the extinction of the untreated (0 μM) cells (=100%). The IC50 values were determined by means of a 4-parameter fit using the company's own software.
Background: Cellular ATP, detected with luciferase, serves as a proxy for viable cell number.

For a further test, the system named is A549 cells. Description: A549 Cell Titer Glo (CTG) Proliferation Assay. The class given is cell-based. The following applies: A549 human non small cell lung cancer cells, mutant K-Ras G12S. On the procedure: as §1
A549 cells [human non small cell lung cancer cell line, expressing mutant K-Ras G12S] were seeded at a density of 2000 cells/well in 96 well black-clear bottom tissue culture plates (Costar 3603 black/clear bottom) in 100 μl/well DMEM medium (DMEM/Ham's F12) with 10% Fetal Bovine Serum (FBS) and stable Glutamine incubated at 37° C. Cell Titer Glo proliferation assays for A549 cells were performed with the same protocol as described afore for HCT116 cells.

Experimental findings from patent publication US8673919B2, “Dihydropyridin sulfonamides and dihydropyridin sulfamides as MEK inhibitors” (Ardea Biosciences, Inc., priority 2009, dated 2014) are described below.

SMILES strings stand for the structures.

T1 sequence (Q02750 whole entry): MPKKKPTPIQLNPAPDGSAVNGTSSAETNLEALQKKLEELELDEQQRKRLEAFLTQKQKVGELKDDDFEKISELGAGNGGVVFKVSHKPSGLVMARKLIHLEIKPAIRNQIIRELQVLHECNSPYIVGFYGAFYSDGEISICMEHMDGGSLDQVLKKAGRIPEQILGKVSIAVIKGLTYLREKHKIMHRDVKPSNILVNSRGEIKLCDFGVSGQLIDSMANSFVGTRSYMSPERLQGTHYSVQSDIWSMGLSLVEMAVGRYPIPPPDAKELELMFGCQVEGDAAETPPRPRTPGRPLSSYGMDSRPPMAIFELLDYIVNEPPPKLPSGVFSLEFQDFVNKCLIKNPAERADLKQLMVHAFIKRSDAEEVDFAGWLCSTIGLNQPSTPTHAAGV

Regarding `Cn1c(Nc2ccc(I)cc2F)c(NS(=O)(=O)C2CC2)ccc1=O` [Example 5, N-{2-[(2-fluoro-4-iodophenyl)amino]-1-methyl-6-oxo-1,6-dihydropyridin-3-yl}cyclopropanesulfonamide], the half-inhibitory concentration (IC50) – broadly, the concentration needed to halve the response being measured – against MEK1 came out at 9.9 nM; in the test on A375 cells (Homo sapiens, A-375, 96 h) it was 2.94 nM; with HCT116 cells (Homo sapiens, HCT-116, 72 h) it was 90.1 nM; with A549 cells (Homo sapiens, A549, 72 h), 206 nM.

For `Cc1cc(NS(=O)(=O)C2(CCO)CC2)c(Nc2ccc(I)cc2F)n(C)c1=O` [Example 3, N-(2-(2-fluoro-4-iodophenylamino)-1,5-dimethyl-6-oxo-1,6-dihydropyridin-3-yl)-1-(2-hydroxyethyl)cyclopropane-1-sulfonamide], the concentration for half-maximal inhibition (IC50) is 8.97 nM against MEK1 and 15 nM with A375 cells (Homo sapiens, A-375, 96 h).

On to `Cn1c(Nc2ccc(I)cc2F)c(NS(=O)(=O)C2(CCO)CC2)ccc1=O` [Example 7, N-{2-[(2-fluoro-4-iodophenyl)amino]-1-methyl-6-oxo-1,6-dihydropyridin-3-yl}-1-(2-hydroxyethyl)cyclopropanesulfonamide], for which the IC50 is 8.36 nM on MEK1; 4.7 nM in the test with A375 cells (Homo sapiens, A-375, 96 h); 117 nM with HCT116 cells (Homo sapiens, HCT-116, 72 h); 254 nM in the test with A549 cells (Homo sapiens, A549, 72 h).

As for `Cn1c(Nc2ccc(I)cc2F)c(NS(=O)(=O)C2(CC(O)CO)CC2)ccc1=O` (single isomer, unassigned) [Example 6A, 1-(2,3-dihydroxypropyl)-N-{2-[(2-fluoro-4-iodophenyl)amino]-1-methyl-6-oxo-1,6-dihydropyridin-3-yl}cyclopropanesulfonamide], the IC50 against MEK1 came to 10.4 nM; in the test on A375 cells it was 17.8 nM; in the test on HCT116 cells (72 hours) it was 119 nM; in the test on A549 cells (72 hours), 481 nM.

For the compound `Cn1c(Nc2ccc(I)cc2F)c(NS(=O)(=O)C2(CC(O)CO)CC2)cc(F)c1=O` (racemic) [Example 9, 1-(2,3-dihydroxypropyl)-N-{5-fluoro-2-[(2-fluoro-4-iodophenyl)amino]-1-methyl-6-oxo-1,6-dihydropyridin-3-yl}cyclopropanesulfonamide], the IC50 is 21.1 nM at MEK1; 25.5 nM in the test with A375 cells (Homo sapiens, A-375, 96 h); 300 nM in the test on HCT116 cells (Homo sapiens, HCT-116, 72 h); 700 nM with A549 cells (Homo sapiens, A549, 72 h).

Regarding `Cn1c(Nc2ccc(I)cc2F)c(NS(=O)(=O)C2(CCO)CC2)cc(F)c1=O` [Example 10, N-{5-fluoro-2-[(2-fluoro-4-iodophenyl)amino]-1-methyl-6-oxo-1,6-dihydropyridin-3-yl}-1-(2-hydroxyethyl)cyclopropanesulfonamide], the IC50 on MEK1 was 38.2 nM; in the test on A375 cells (Homo sapiens, A-375, 96 h) it was 22.9 nM; in the test on HCT116 cells (Homo sapiens, HCT-116, 72 h), 360 nM; in the test on A549 cells (Homo sapiens, A549, 72 h), 730 nM.

As to `Cn1c(Nc2ccc(I)cc2F)c(NS(=O)(=O)C2CC2)cc(F)c1=O` [Example 8, N-{5-fluoro-2-[(2-fluoro-4-iodophenyl)amino]-1-methyl-6-oxo-1,6-dihydropyridin-3-yl}cyclopropanesulfonamide], the IC50 against MEK1 was 15.3 nM; in the test with A375 cells (Homo sapiens, A-375, 96 h), 26.6 nM; in the test with HCT116 cells (Homo sapiens, HCT-116, 72 h), 590 nM; in the test on A549 cells (Homo sapiens, A549, 72 h), 930 nM.

Take `Cc1cc(NS(=O)(=O)C2CC2)c(Nc2ccc(I)cc2F)n(C)c1=O` [Example 1, N-(2-(2-fluoro-4-iodophenylamino)-1,5-dimethyl-6-oxo-1,6-dihydropyridin-3-yl) cyclopropanesulfonamide]: 12.1 nM corresponded to half-maximal inhibition at MEK1 (IC50). In other words, the double-digit nanomolar range.

For `Cc1cc(NS(=O)(=O)C2(CC(O)CO)CC2)c(Nc2ccc(I)cc2F)n(C)c1=O` (racemic) [Example 2, 1-(2,3-dihydroxypropyl)-N-(2-(2-fluoro-4-iodophenylamino)-1,5-dimethyl-6-oxo-1,6-dihydropyridin-3-yl)cyclopropane-1-sulfonamide], the IC50 turned out to be 11.5 nM against MEK1 and 17 nM in the test with A375 cells (Homo sapiens, A-375, 96 h).

In the case of `Cn1c(Nc2ccc(I)cc2F)c(NS(=O)(=O)C2(CC(O)CO)CC2)ccc1=O` (single isomer, unassigned) [Example 6B, 1-(2,3-dihydroxypropyl)-N-{2-[(2-fluoro-4-iodophenyl)amino]-1-methyl-6-oxo-1,6-dihydropyridin-3-yl}cyclopropanesulfonamide], the IC50 on MEK1 turned out to be 16.6 nM; in the test on A375 cells, 7.74 nM; in the test on HCT116 cells (72 hours) it was 54.5 nM; in the test with A549 cells (72 hours), 203 nM.
